This note sets out measurements from patent US20220370453A1 (Storm Therapeutics Ltd, priority 2019, published 2022).

Assay [1] deals with T1, BCDIN3D (Homo sapiens, UniProt Q7Z5W3).
T1 sequence (Q7Z5W3 1-292): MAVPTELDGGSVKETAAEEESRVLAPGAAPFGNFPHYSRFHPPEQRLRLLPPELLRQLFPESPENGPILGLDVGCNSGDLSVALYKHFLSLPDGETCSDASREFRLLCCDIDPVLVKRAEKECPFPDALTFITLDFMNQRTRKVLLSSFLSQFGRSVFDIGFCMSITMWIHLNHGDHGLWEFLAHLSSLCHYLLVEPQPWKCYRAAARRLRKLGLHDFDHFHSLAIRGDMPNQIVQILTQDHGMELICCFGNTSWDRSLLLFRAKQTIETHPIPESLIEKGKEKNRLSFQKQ
The assay is described as follows: BCDIN3D InCellPulse thermal stability assay in transfected A549 cells. In kind it is cell-based. The conditions noted are these: heat shock 58° C. 15 min. The method, then:
BCDIN3D InCellPulse™ Assay
The thermal stability assay was performed with lipofectamine 3000 transiently transfected A549 using the plasmid pICP-ePL-BCDIN3 Da. This plasmid encodes for BCDIN3D N-terminally fused to a Prolabel (ePL), complementing a split β-Galactosidase Enzyme System InCELL Pulse Technology (InCELL Hunter Detection Kit, DiscoverX/Eurofins, cat: 96-0079L). 20 μl A549 cells (1500 cell/well) were added with a multidrop device to compounds to a final DMSO concentration of 0.6% in 384-well polypropylene plate format in IMDM medium and pre-incubated with the compounds for 1 h at 37° C. and 5% CO2. Subsequently, a heat shock was applied to the entire sealed plate in a 58° C. water bath for 15 min. The plates were cooled to RT, spun down and 25 μl/well of EA Detection Solution at 3.3× (InCELL Hunter Detection Kit) was added per well. 21 μl of the mixture was added to a black 384-well measurement plate (Corning, PS, black, Flat Bottom, #3575), mix for 30 minutes on a plate shaker at RT. Finally, the luminescence was measured with a Perkin Elmer EnVision with 0.2 s measurement time in luminescence mode.

Assay [2] has as its target T1, BCDIN3D. The assay is described as follows: BCDIN3D IC50 RFMS (RapidFire) assay with mini-helix. In kind it is biochemical. The conditions noted are these: 25 nM enzyme. The method, then: The following General Methods details the assay conditions for the Biological assays.
BCDIN3D IC50 RFMS Assay with Mini-Helix
The enzymatic assay was performed in a 384-well polypropylene plate in assay buffer with 25 mM Tris pH 8.0, 10 mM DTT, 1 mM EDTA, 0.03% BSA in a final assay volume of 20 μL. The enzyme with a final concentration of 25 nM was pre-incubated with the respective compound at 1% DMSO final assay concentration over 10 min at room temperature. The reaction was initiated by addition of 0.2 μM final assay concentration of mini-helix and 6 μM final concentration of SAM as substrates. After a 1 hr incubation at 37° C., the reaction was terminated with 40 μL of stop solution of 7.5% trichloroactetic acid in water containing 112.5 nM D4-SAH and 30 nM ^13C10-SAH used as internal standards. The SAH product concentrations as well as both internal standards were analyzed by a RapidFire High Throughput Mass Spectrometry System (Agilent Technologies, Santa Clara, Calif.) using an AP14000 triple quadrupole mass spectrometer (AB Sciex Framingham, Mass.).

Where [3] appears, read: A549 cells transiently transfected with ePL-BCDIN3D, 1 h pre-incubation.
Where [4] appears, read: mini-helix 0.2 μM and SAM 6 μM as substrates, 1 hr at 37° C.
Setting [5] is: transiently transfected A549 cells.
The mark [6] stands for this setting: mini-helix substrate 0.2 μM, SAM 6 μM.

Each structure is given as a SMILES string.

One may read the IC50 as the concentration that inhibits the measured activity by half. Lower therefore signals greater potency. Take `Cc1ccc(CNc2nc(NC3CCCCC3N)nc3c2cnn3C)cc1Cl` (stereo not shown) [Compound 1.34, 6-N-(2-aminocyclohexyl)-4-N-[(3-chloro-4-methylphenyl)methyl]-1-methylpyrazolo[3,4-d]pyrimidine-4,6-diamine]: the values for the IC50 against BCDIN3D [1] (setting [3]) and against BCDIN3D [2] (setting [4]) were 1410 nM and 1140 nM, respectively.
The corresponding values for `Cn1ncc2c(Nc3ccc(C(F)(F)F)nc3)nc(NCC3(N)CCOCC3)nc21` [Compound 1.35, 6-N-[(4-aminooxan-4-yl)methyl]-1-methyl-4-N-[6-(trifluoromethyl)pyridin-3-yl]pyrazolo[3,4-d]pyrimidine-4,6-diamine] are 7880 nM and 3950 nM.
The corresponding values for `Cn1ncc2c(Nc3ccc(C(F)(F)F)cc3)nc(N[C@H]3COC[C@H]3N)nc21` [Compound 1.36, N6-[(3R,4S)-4-aminotetrahydrofuran-3-yl]-1-methyl-N4-[4-(trifluoromethyl)phenyl]pyrazolo[3,4-d]pyrimidine-4,6-diamine] are 10600 nM and 5660 nM.
In the same order, the values of `Cc1nn(C)c2nc(NCC(C)(C)N)cc(NCc3cccc(C(F)(F)F)c3)c12` [Compound 1.38, 6-N-(2-Amino-2-methylpropyl)-1,3-dimethyl-4-N-[[3-(trifluoromethyl)phenyl]methyl]pyrazolo[3,4-b]pyridine-4,6-diamine] are 4000 nM and 8630 nM.
In the case of `Cc1ccc(CNc2nc(NCC3(N)CC3)nc3c2cnn3C)cc1Cl` [Compound 2.01, 6-N-[(1-Aminocyclopropyl)methyl]-4-N-[(3-chloro-4-methylphenyl)methyl]-1-methylpyrazolo[3,4-d]pyrimidine-4,6-diamine], the figures for the IC50 against BCDIN3D [1] (setting [5]) and at BCDIN3D [2] (setting [6]) were 707 nM and 275 nM, respectively.
`Cn1ncc2c(NCc3ccc(F)c(Cl)c3)nc(NCC3(N)CC3)nc21` [Compound 2.02, 6-N-[(1-Aminocyclopropyl)methyl]-4-N-[(3-chloro-4-fluorophenyl)methyl]-1-methylpyrazolo[3,4-d]pyrimidine-4,6-diamine]: the IC50 is 1910 nM against BCDIN3D [1] (setting [5]) and 505 nM on BCDIN3D [2] (setting [6]).
Consider `Cn1ncc2c(Nc3ccc(C(F)(F)F)c(F)c3)nc(NCC3(N)CC3)nc21` [Compound 2.03, N6-[(1-aminocyclopropyl)methyl]-N4-[3-fluoro-4-(trifluoromethyl)phenyl]-1-methyl-pyrazolo[3,4-d]pyrimidine-4,6-diamine], for which the IC50 at BCDIN3D [1] (setting [5]) was 282 nM; at BCDIN3D [2] (setting [6]), 20.7 nM.
The corresponding values for `COc1ccc(Nc2nc(NCC3(N)CC3)nc3c2cnn3C)cc1Cl` [Compound 2.04, 6-N-[(1-aminocyclopropyl)methyl]-4-N-(3-chloro-4-methoxyphenyl)-1-methylpyrazolo[3,4-d]pyrimidine-4,6-diamine] are 1800 nM and 60.8 nM.
In the same order, the values of `Cn1ncc2c(Nc3ccc(F)cc3F)nc(NCC3(N)CC3)nc21` [Compound 2.05, 6-N-[(1-aminocyclopropyl)methyl]-4-N-(2,4-difluorophenyl)-1-methylpyrazolo[3,4-d]pyrimidine-4,6-diamine] are 5050 nM and 1670 nM.
The corresponding values for `Cn1ncc2c(Nc3cccc(C(F)(F)F)c3)nc(NCC3(N)CC3)nc21` [Compound 2.06, 6-N-[(1-aminocyclopropyl)methyl]-1-methyl-4-N-[3-(trifluoromethyl)phenyl]pyrazolo[3,4-d]pyrimidine-4,6-diamine] are 2210 nM and 509 nM.
For `Cn1ncc2c(Nc3cccc(C(F)F)c3)nc(NCC3(N)CC3)nc21` [Compound 2.07, 6-N-[(1-aminocyclopropyl)methyl]-4-N-[3-(difluoromethyl)phenyl]-1-methylpyrazolo[3,4-d]pyrimidine-4,6-diamine], the IC50 against BCDIN3D [1] (setting [5]) came to 4100 nM; on BCDIN3D [2] (setting [6]), 443 nM.
The corresponding values for `Cn1ncc2c(Nc3ccc(F)cc3)nc(NCC3(N)CC3)nc21` [Compound 2.08, 6-N-[(1-aminocyclopropyl)methyl]-4-N-(4-fluorophenyl)-1-methylpyrazolo[3,4-d]pyrimidine-4,6-diamine] are 2720 nM and 242 nM.
In the same order, the values of `Cc1ccc(Nc2nc(NCC3(N)CC3)nc3c2cnn3C)cc1Cl` [Compound 2.09, 6-N-[(1-aminocyclopropyl)methyl]-4-N-(3-chloro-4-methylphenyl)-1-methylpyrazolo[3,4-d]pyrimidine-4,6-diamine] are 602 nM and 39.8 nM.
As to `Cn1ncc2c(Nc3cccnc3)nc(NCC3(N)CC3)nc21` [Compound 2.10, 6-N-[(1-aminocyclopropyl)methyl]-1-methyl-4-N-pyridin-3-ylpyrazolo[3,4-d]pyrimidine-4,6-diamine], the half-inhibitory concentration (IC50) amounted to 15700 nM against BCDIN3D [1] (setting [5]) and 8680 nM against BCDIN3D [2] (setting [6]).
The corresponding values for `Cn1ncc2c(Nc3ccccc3)nc(NCC3(N)CC3)nc21` [Compound 2.11, 6-N-[(1-aminocyclopropyl)methyl]-1-methyl-4-N-phenylpyrazolo[3,4-d]pyrimidine-4,6-diamine] are 2890 nM and 490 nM.
In the same order, the values of `Cn1ncc2c(NCc3cccc(Br)c3)nc(NCC3(N)CC3)nc21` [Compound 2.12, 6-N-[(1-aminocyclopropyl)methyl]-4-N-[(3-bromophenyl)methyl]-1-methylpyrazolo[3,4-d]pyrimidine-4,6-diamine] are 1490 nM and 588 nM.
In the same order, the values of `Cn1ncc2c(NCc3ccc(Br)cc3)nc(NCC3(N)CC3)nc21` [Compound 2.13, 6-N-[(1-aminocyclopropyl)methyl]-4-N-[(4-bromophenyl)methyl]-1-methylpyrazolo[3,4-d]pyrimidine-4,6-diamine] are 1610 nM and 369 nM.
Consider `Cn1ncc2c(Nc3ccc(F)cc3Cl)nc(NCC3(N)CC3)nc21` [Compound 2.14, 6-N-[(1-aminocyclopropyl)methyl]-4-N-(2-chloro-4-fluorophenyl)-1-methylpyrazolo[3,4-d]pyrimidine-4,6-diamine], for which the figures for the IC50 against BCDIN3D [1] (setting [5]) and at BCDIN3D [2] (setting [6]) were 9590 nM and 5960 nM, respectively.
In the same order, the values of `Cn1ncc2c(Nc3ccc(Cl)cc3F)nc(NCC3(N)CC3)nc21` [Compound 2.15, 6-N-[(1-aminocyclopropyl)methyl]-4-N-(4-chloro-2-fluorophenyl)-1-methylpyrazolo[3,4-d]pyrimidine-4,6-diamine] are 1630 nM and 446 nM.
The corresponding values for `Cn1ncc2c(Nc3cc(F)cc(Cl)c3)nc(NCC3(N)CC3)nc21` [Compound 2.16, 6-N-[(1-aminocyclopropyl)methyl]-4-N-(3-chloro-5-fluorophenyl)-1-methylpyrazolo[3,4-d]pyrimidine-4,6-diamine] are 959 nM and 452 nM.
In the same order, the values of `Cn1ncc2c(Nc3ccc(Cl)c(C#N)c3)nc(NCC3(N)CC3)nc21` [Compound 2.17, 5-[[6-[(1-aminocyclopropyl)methylamino]-1-methyl-pyrazolo[3,4-d]pyrimidin-4-yl]amino]-2-chloro-benzonitrile] are 2560 nM and 440 nM.
As for `Cn1ncc2c(NC34CC(c5ccccc5)(C3)C4)nc(NCC3(N)CC3)nc21` [Compound 2.18, N6-[(1-aminocyclopropyl)methyl]-1-methyl-N4-(1-phenyl-3-bicyclo[1.1.1]pentanyl)pyrazolo[3,4-d]pyrimidine-4,6-diamine], the IC50 on BCDIN3D [1] (setting [5]) worked out at 207 nM; at BCDIN3D [2] (setting [6]), 111 nM.
The corresponding values for `Cn1ncc2c(NCc3ccc(C(F)(F)F)nc3)nc(NCC3(N)CC3)nc21` [Compound 2.19, 6-N-[(1-aminocyclopropyl)methyl]-1-methyl-4-N-[[6-(trifluoromethyl)pyridin-3-yl]methyl]pyrazolo[3,4-d]pyrimidine-4,6-diamine] are 11700 nM and 7120 nM.
